{
  "source": "paper PMC8005870",
  "about": "“Membrane Lipid Requirements of the Lysine Transporter Lyp1 from Saccharomyces cerevisiae” (Journal of molecular biology, 2020)",
  "target": "T1, Lyp1 (Lyp1-GFP) (Saccharomyces cerevisiae, UniProt P32487)",
  "T1 construct": "full-length Lyp1 with C-terminal TEV-GFP-His10 kept, expressed in Pichia pastoris SMD1163, DDM-solubilised, purified by IMAC and FSEC, reconstituted in proteoliposomes",
  "T1 sequence (P32487 1-611)": "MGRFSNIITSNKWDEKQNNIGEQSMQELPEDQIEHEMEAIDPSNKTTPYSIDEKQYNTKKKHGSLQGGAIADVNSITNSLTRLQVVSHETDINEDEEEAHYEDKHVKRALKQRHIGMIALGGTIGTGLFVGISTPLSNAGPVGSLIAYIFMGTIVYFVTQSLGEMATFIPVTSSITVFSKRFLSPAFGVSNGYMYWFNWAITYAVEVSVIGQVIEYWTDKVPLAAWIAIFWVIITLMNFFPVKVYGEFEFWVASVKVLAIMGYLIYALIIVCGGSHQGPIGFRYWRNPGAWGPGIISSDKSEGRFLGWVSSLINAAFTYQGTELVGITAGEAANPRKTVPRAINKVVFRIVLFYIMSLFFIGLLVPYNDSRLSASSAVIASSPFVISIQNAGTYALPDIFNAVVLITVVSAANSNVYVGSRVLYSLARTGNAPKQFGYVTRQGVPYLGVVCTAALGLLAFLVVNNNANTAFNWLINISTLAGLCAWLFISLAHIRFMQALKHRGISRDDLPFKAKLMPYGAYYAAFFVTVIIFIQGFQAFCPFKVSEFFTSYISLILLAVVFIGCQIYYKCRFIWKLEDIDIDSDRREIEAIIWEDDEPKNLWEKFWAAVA",
  "assay": "lysine transport turnover versus mol% lipid in proteoliposomes",
  "assay_type": "biochemical",
  "conditions": "proton motive force about -160 mV (valinomycin K+ diffusion potential plus acetate gradient), pH 6.0; defined lipid vesicles; POPS titrated in POPS/POPE/ergosterol vesicles; sigmoidal, cooperative lip",
  "data": [
    {"smiles": "CCCCCCCC/C=C\\CCCCCCCC(=O)O[C@H](COC(=O)CCCCCCCCCCCCCCC)COP(=O)(O)OC[C@H](N)C(=O)O", "note": "[POPS, 1-palmitoyl-2-oleoyl-sn-glycero-3-phosphoserine]", "values": [
      {"measurement": "lysine transport turnover versus mol% lipid in proteoliposomes", "result": "We found a sigmoidal relationship between Lyp1 activity and POPS concentration"}
    ]}
  ]
}
